These results are taken from PMC1968811, “Pharmacokinetics in melanoma-bearing mice of 5-dihydroxyboryl-6-propyl-2-thiouracil (BPTU), a candidate compound for boron neutron capture therapy” (British Journal of Cancer, 1994).

Data set [1] relates to pigmented B16 melanoma (B16wt). Kind of data set: Tumour boron uptake and retention in subcutaneous pigmented B16 tumours. The class given is in vivo, C57/BL mice. The note with it: for Tumour boron conc. / Tumour-to-blood ratio (boron): BSH 50 mg kg-1 boron single dose, B16.wt. From the text:
(§1) Br. J. Cancer (1994), 69, 641 647 ? Macmillan Press Ltd., 1994~~~~~~~~~~~~~~~~~~~~~~~~~~~~~~~~~~~~~~~~~~~~~~~~~~~~~~~~~~~~~~~~~~~~~~~~~~~~~~~~~~~~~ Pharmacokinetics in melanoma-bearing- mice of 5-dihydroxyboryl- 6-propyl-2-thiouracil (BPTU), a candidate compound for boron neutron capture therapy R. Verrijkl, I.J.H. Smolders', R. Huiskamp2, P.R. Gavin3,. K.H.I. Philipp2 & A.C. Begg' 'The Netherlands Cancer Institute, Division of Experimental Therapy, Plesmanlaan 121, 1066 CX, Amsterdam, The Netherlands; 2The Netherlands Energy Research Foundation, Division of Radiobiology and Radioecology, PO Box 1, 1755 SG, Petten, The Netherlands; 3Department of Veterinary Clinical Medicine and Surgery and Washington Animal Disease and Diagnostic Laboratory, Washington State University, Pullman, Washington 99164-6610, USA. Summary Blood pharmacokinetics and tissue distribution of 5-dihydroxyboryl-6-propyl-2-thiouracil (BPTU), a boron carrier with postulated melanin-seeking properties for boron neutron capture therapy, were deter- mined in C57/BL mice with subcutaneous pigmented or non-pigmented B16 melanomas. Borocaptate sodium (BSH) was used as a boron compound without melanin-seeking properties in a comparative biodistribution study in the same animal tumour models. […] BPTU was found in large concentra- tions in kidney and liver. Brain boron was approximately 10-fold lower than tumour boron. […] Owing to solubility limits, tumour boron concentrations in this mouse study were too low for effective application of BNCT. However, the high tumour-to-blood and tumour-to-normal tissues ratios indicate that, with appropriate formulation, BPTU could be a promising candidate for clinical BNCT. […] The selective accumulation of "'B-containing compounds in tumours and subsequent irradiation with low-energy (thermal) neutrons form the basis of BNCT. The short track lengths of `'B(n,a)7Li fission pro- ducts (9 and 5 iLm for a and 7Li respectively) offer partial restriction of the radiation dose to the "'B-containing cells. Additional advantages owing to the high-LET (linear energy transfer) character of the emitted radiation are higher biological efficacies compared with photons or X-rays and less effect of hypoxia or cell cycle distribution on the therapeutic effect. The relatively high resistance of melanomas for photon therapy and the presence of a bio- chemical rationale for boron targeting explain the efforts made in this area (Mishima et al., 1989; Madoc Jones et al., 1990). The often high rate of melanogenesis in melanoma cells has led to the development of several boron drugs with melanoma-seeking capacity. The L-isomer of boronphenylalanine (BPA) is taken up by melanoma cells both in vitro and in vivo (Ichihashi et al., 1982; 1989; Coderre et al., 1987; 1990; Allen et al., 1992; Packer et al., 1992). Animal studies on BNCT efficacy and normal tissue tolerance with BPA have also been performed (Coderre et al., 1991; 1992; Hiratsuka et al., 1991). Although the uptake of BPA in melanoma cells is well accepted, incor- poration of boron into melanin might not occur, resulting in poor retention. Boronated thiouracils that enter the melanogenesis pathway at a different point from BPA have been recently synthesised, aiming at boron incorporation into the melanin for better retention (Tjarks & Gabel, 1991). […] Since the radiation dose in BNCT is mainly dependent on cellular boron levels, amelanotic tumour cell subpopulations may limit the efficacy of boron compounds that target the pigmented tumour cell fraction only. […] Begg. Received 1 September 1993; and in revised form 15 November 1993. into cell populations with different pigmentation levels in experimental tumour models, melanomas often increase in the amelanotic fraction with tumour progression and metas- tasis development in humans (Guiliano et al., 1982; Elder, 1987). It is therefore important to establish the capacity of melanoma-seeking boron drugs to target the amelanotic cells in a tumour. […]

The subject of data set [2] is non-pigmented B16.013 melanoma. Kind of data set: Tumour boron uptake and retention in subcutaneous non-pigmented B16.013 tumours. In kind it is in vivo, C57/BL mice. The following applies: for Tumour boron conc. / Tumour-to-blood ratio (boron): BSH 50 mg kg-1 boron single dose, B16.013.
Source text: as §1

The nature of data set [3]: Boron distribution in blood and normal tissues (skin, muscle, brain, kidneys, liver) of tumour-bearing mice. In kind it is in vivo, C57/BL mice. From the text:
(§2) Br. J. Cancer (1994), 69, 641 647 ? Macmillan Press Ltd., 1994~~~~~~~~~~~~~~~~~~~~~~~~~~~~~~~~~~~~~~~~~~~~~~~~~~~~~~~~~~~~~~~~~~~~~~~~~~~~~~~~~~~~~ Pharmacokinetics in melanoma-bearing- mice of 5-dihydroxyboryl- 6-propyl-2-thiouracil (BPTU), a candidate compound for boron neutron capture therapy R. Verrijkl, I.J.H. Smolders', R. Huiskamp2, P.R. Gavin3,. K.H.I. Philipp2 & A.C. Begg' 'The Netherlands Cancer Institute, Division of Experimental Therapy, Plesmanlaan 121, 1066 CX, Amsterdam, The Netherlands; 2The Netherlands Energy Research Foundation, Division of Radiobiology and Radioecology, PO Box 1, 1755 SG, Petten, The Netherlands; 3Department of Veterinary Clinical Medicine and Surgery and Washington Animal Disease and Diagnostic Laboratory, Washington State University, Pullman, Washington 99164-6610, USA. Summary Blood pharmacokinetics and tissue distribution of 5-dihydroxyboryl-6-propyl-2-thiouracil (BPTU), a boron carrier with postulated melanin-seeking properties for boron neutron capture therapy, were deter- mined in C57/BL mice with subcutaneous pigmented or non-pigmented B16 melanomas. Borocaptate sodium (BSH) was used as a boron compound without melanin-seeking properties in a comparative biodistribution study in the same animal tumour models. […] BPTU was found in large concentra- tions in kidney and liver. Brain boron was approximately 10-fold lower than tumour boron. […] Owing to solubility limits, tumour boron concentrations in this mouse study were too low for effective application of BNCT. However, the high tumour-to-blood and tumour-to-normal tissues ratios indicate that, with appropriate formulation, BPTU could be a promising candidate for clinical BNCT. […] The selective accumulation of "'B-containing compounds in tumours and subsequent irradiation with low-energy (thermal) neutrons form the basis of BNCT. The short track lengths of `'B(n,a)7Li fission pro- ducts (9 and 5 iLm for a and 7Li respectively) offer partial restriction of the radiation dose to the "'B-containing cells. Additional advantages owing to the high-LET (linear energy transfer) character of the emitted radiation are higher biological efficacies compared with photons or X-rays and less effect of hypoxia or cell cycle distribution on the therapeutic effect. The relatively high resistance of melanomas for photon therapy and the presence of a bio- chemical rationale for boron targeting explain the efforts made in this area (Mishima et al., 1989; Madoc Jones et al., 1990). The often high rate of melanogenesis in melanoma cells has led to the development of several boron drugs with melanoma-seeking capacity. […]

The nature of data set [4]: Solubility limit in formulation for injection. The note with it: limited the dose administered to mice. The class given is physicochemical. The source says:
Br. J. Cancer (1994), 69, 641 647 ? Macmillan Press Ltd., 1994~~~~~~~~~~~~~~~~~~~~~~~~~~~~~~~~~~~~~~~~~~~~~~~~~~~~~~~~~~~~~~~~~~~~~~~~~~~~~~~~~~~~~ Pharmacokinetics in melanoma-bearing- mice of 5-dihydroxyboryl- 6-propyl-2-thiouracil (BPTU), a candidate compound for boron neutron capture therapy R. Verrijkl, I.J.H. Smolders', R. Huiskamp2, P.R. Gavin3,. K.H.I. Philipp2 & A.C. Begg' 'The Netherlands Cancer Institute, Division of Experimental Therapy, Plesmanlaan 121, 1066 CX, Amsterdam, The Netherlands; 2The Netherlands Energy Research Foundation, Division of Radiobiology and Radioecology, PO Box 1, 1755 SG, Petten, The Netherlands; 3Department of Veterinary Clinical Medicine and Surgery and Washington Animal Disease and Diagnostic Laboratory, Washington State University, Pullman, Washington 99164-6610, USA. Summary Blood pharmacokinetics and tissue distribution of 5-dihydroxyboryl-6-propyl-2-thiouracil (BPTU), a boron carrier with postulated melanin-seeking properties for boron neutron capture therapy, were deter- mined in C57/BL mice with subcutaneous pigmented or non-pigmented B16 melanomas. Borocaptate sodium (BSH) was used as a boron compound without melanin-seeking properties in a comparative biodistribution study in the same animal tumour models. […] BPTU was found in large concentra- tions in kidney and liver. Brain boron was approximately 10-fold lower than tumour boron. […]

Data set [5] concerns melanotic B16 cells. The note with it: cited from earlier work; for Retention in cells in vitro: after washing, ref R. Verrijk et al., 1991, unpublished data.
Data set [6] concerns non-pigmented B16.013 subclone. Further details: method as in R. Verrijk et al., 1991, unpublished data. The note with it: non-pigmented B16.013 cells; ref R. Verrijk et al., 1991, unpublished data; cited from earlier work.
A short description of data set [7]: Blood boron pharmacokinetics in B16 melanoma-bearing mice (ICP-AES, two-compartment fit). The note with it: for Cmax blood, maximum boron concentration in blood: calculated values, BSH 50 mg kg-1 boron i.v. In kind it is in vivo, C57/BL mice.
Source text: as §2, with “cells.” for “cells. Additional advantages owing to the high-LET (linear energy transfer) character of the emitted radiation are higher biological efficacies compared with photons or X-rays and less effect of hypoxia or cell cycle distribution on the therapeutic effect. The relatively high resistance of melanomas for photon therapy and the presence of a bio- chemical rationale for boron targeting explain the efforts made in this area (Mishima et al., 1989; Madoc Jones et al., 1990). The often high rate of melanogenesis in melanoma cells has led to the development of several boron drugs with melanoma-seeking capacity.”

The subject of data set [8] is subcutaneous fibrosarcoma RIF-1. Briefly: BSH boron pharmacokinetics in blood and RIF-1 tumour tissue. The class given is in vivo, C3H/Km mice.
Where [9] appears, read: BSH 50 mg kg-1 boron i.v., 12 min after administration.

Take `CCCc1[nH]c(=S)[nH]c(=O)c1B(O)O` [BPTU, 5-dihydroxyboryl-6-propyl-2-thiouracil]: the “Change of mean tumour boron concentration, multiple vs single BPTU administration” value in data set [1] (4 x 3.15 vs 3.15 mg kg-1 boron, 24 h, pigmented B16) is “increased more than three times”. In addition, in data set [2] (BPTU single dose, non-pigmented tumour variant), the “Tumour boron vs blood boron profile” value was “tumour boron levels closely followed blood levels”. Further, in data set [3] (BPTU single doses), the “Boron in kidney and liver” value is “found in large concentrations in kidney and liver”. Further, in data set [4], the Solubility entry was “insufficient solubility”. Moreover, the “Retention in cells in vitro” value in data set [5] (melanotic B16 cells) is recorded as “better retained in the cells than BPA or BSH”; in data set [6] it was “failed to be retained”.
In the case of `O=c1[nH]c(=S)[nH]cc1B(O)O` [BTU, boronthiouracil], the “Retention in cells in vitro” value in data set [5] (melanotic B16 cells) and in data set [6] was “showed no retention at all in either cell line” throughout.
Regarding Borocaptate sodium [BSH], in data set [7] (BSH 50 vs BPTU 3.15 mg kg-1 boron), the “Cmax values relative to BPTU” value is recorded as “approximately 10 fold”. Also, the “Cmax blood, maximum boron concentration in blood” value in data set [7] (B16wt-bearing mice) is recorded as 59.4 ± 10.6 g mli; in data set [7] (B16.013-bearing mice), 54.1 ± 14.6 g mli. Besides, the “Mean ratio Cmax tumour/injected dose” value in data set [1] (BSH 50 mg kg-1 boron i.v., B16wt tumour) is listed as 0.7; in data set [2] (BSH 50 mg kg-1 boron i.v., B16.013 tumour), 1.0. Besides, the Tumour boron conc. was 7.6 g g-g' in data set [1] (4 h), 2.3 g g-g' in data set [1] (24 h), 10.5 g g-g' in data set [2] (4 h) and 2.2 g g-g' in data set [2] (24 h). For the same compound, the “Tumour-to-blood ratio (boron)” value came to 1.1 in data set [1] (4 h), 3.4 in data set [1] (24 h), 1.5 in data set [2] (4 h) and 4.0 in data set [2] (24 h). Also, the “Retention of boron in tumour” value was “retained in B16 tumours at 24 and 48 h, irrespective of pigmentation degree” in data set [1] (BSH 50 mg kg-1 boron, 24 and 48 h, pigmented B16); “retained in B16 tumours at 24 and 48 h, irrespective of pigmentation degree” in data set [2] (BSH 50 mg kg-1 boron, 24 and 48 h, non-pigmented B16). For the same compound, the “Cmax tumour, maximum boron concentration in tumour” value in data set [1] (highest measured values, BSH 50 mg kg-1 boron i.v., B16wt tumour) is 32.8 3.52 g mg-; in data set [2] (highest measured values, BSH 50 mg kg-1 boron i.v., B16.013 tumour), 49.8 11.0 g mg-. For the same compound, the Liver boron level result in data set [3] (setting [9]) was “up to 230 Agg- g”. The “Liver boron relative to blood boron” value in data set [3] (setting [9]) is 8 fold. Besides, the “Liver-to-kidney boron concentration ratio” value in data set [3] (BSH, during the tissue distribution phase) is 2-4. Further, in data set [8] (BSH 50 mg kg-1 boron, RIF-1 fibrosarcoma, 24 or 48 h), the “Tumour-to-blood ratios of boron” value is given as “not significantly above unity”. The Boron tumour-to-blood ratios entry in data set [8] (BSH, at times before 24 h, tumour model not named at the place) was “below 1”. Moreover, in data set [5] (melanotic B16 cells incubated with BSH, ref Verrijk et al., 1992), the “Levels of boron in cells vs culture medium” value is “higher than in the culture medium only after 16 h incubation”. Moreover, in data set [5] (melanotic B16 cells, washing with boron-free culture medium for 4 h, ref Verrijk et al., 1992), the “Cellular boron retention after washing” value is given as “Partial cel- lular boron retention”.
